We go through four compounds from article PMC3168433, “Drosophila KCNQ Channel Displays Evolutionarily Conserved Electrophysiology and Pharmacology with Mammalian KCNQ Channels” (PLoS ONE, 2011).

What all share (type): cell-based
Assay [1] deals with T1, KCNQ2/3 (Rattus norvegicus, UniProt O88943+O88944).
T1 construct: rat KCNQ2 and KCNQ3 cDNAs in pcDNA3.1 co-transfected 1:1 in HEK cells; heterotetramer
The assay can be described thus: whole-cell patch clamp, HEK cells, current at +[…] mV. The conditions noted are these: HEK293. In general terms: In patch-clamp work, channel activity is measured electrically.

Assay [2] concerns the target T2, dKCNQ (Drosophila melanogaster, UniProt Q5PXF9).
T2 construct: gene KCNQ; full-length cDNA RE26469 in pIRES2-EGFP, expressed in HEK cells; homotetramer
T2 sequence (Q5PXF9 1-808): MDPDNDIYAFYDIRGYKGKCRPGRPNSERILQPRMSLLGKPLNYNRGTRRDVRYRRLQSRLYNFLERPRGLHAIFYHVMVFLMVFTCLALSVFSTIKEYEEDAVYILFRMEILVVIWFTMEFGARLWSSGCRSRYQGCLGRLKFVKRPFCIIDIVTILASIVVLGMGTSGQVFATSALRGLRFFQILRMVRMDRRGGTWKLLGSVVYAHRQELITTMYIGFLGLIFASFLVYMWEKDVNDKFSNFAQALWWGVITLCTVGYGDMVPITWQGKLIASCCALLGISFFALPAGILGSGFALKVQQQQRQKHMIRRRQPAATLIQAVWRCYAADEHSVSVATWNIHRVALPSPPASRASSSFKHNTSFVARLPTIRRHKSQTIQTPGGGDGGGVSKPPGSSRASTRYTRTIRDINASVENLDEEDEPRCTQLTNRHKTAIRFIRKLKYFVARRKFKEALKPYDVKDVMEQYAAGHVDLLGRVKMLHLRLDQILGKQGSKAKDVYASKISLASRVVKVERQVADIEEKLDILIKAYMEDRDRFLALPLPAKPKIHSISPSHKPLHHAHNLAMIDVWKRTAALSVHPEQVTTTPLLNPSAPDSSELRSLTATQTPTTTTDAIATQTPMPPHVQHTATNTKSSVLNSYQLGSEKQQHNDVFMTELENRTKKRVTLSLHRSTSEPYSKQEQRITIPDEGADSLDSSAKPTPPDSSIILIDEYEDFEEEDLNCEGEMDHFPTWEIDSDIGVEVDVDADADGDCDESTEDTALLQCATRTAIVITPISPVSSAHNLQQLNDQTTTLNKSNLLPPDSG
The description is as above. The conditions noted are these: HEK293.

Assay [3] deals with T1, KCNQ2/3. Briefly: whole-cell patch clamp, HEK cells, current at −[…] mV. The conditions noted are these: opener; at −30 mV; activation V0.5 shifted by −24 mV; pH 7.2; room temperature.
In assay [4] the target is T3, KCNQ1/KCNE1 (Homo sapiens, UniProt P51787).
T3 construct: human KCNQ1 co-expressed with KCNE1 (cDNA 1:2) in HEK cells, pIRES1-CD8; with Potassium voltage-gated channel subfamily E member 1
T3 sequence (P51787 whole entry): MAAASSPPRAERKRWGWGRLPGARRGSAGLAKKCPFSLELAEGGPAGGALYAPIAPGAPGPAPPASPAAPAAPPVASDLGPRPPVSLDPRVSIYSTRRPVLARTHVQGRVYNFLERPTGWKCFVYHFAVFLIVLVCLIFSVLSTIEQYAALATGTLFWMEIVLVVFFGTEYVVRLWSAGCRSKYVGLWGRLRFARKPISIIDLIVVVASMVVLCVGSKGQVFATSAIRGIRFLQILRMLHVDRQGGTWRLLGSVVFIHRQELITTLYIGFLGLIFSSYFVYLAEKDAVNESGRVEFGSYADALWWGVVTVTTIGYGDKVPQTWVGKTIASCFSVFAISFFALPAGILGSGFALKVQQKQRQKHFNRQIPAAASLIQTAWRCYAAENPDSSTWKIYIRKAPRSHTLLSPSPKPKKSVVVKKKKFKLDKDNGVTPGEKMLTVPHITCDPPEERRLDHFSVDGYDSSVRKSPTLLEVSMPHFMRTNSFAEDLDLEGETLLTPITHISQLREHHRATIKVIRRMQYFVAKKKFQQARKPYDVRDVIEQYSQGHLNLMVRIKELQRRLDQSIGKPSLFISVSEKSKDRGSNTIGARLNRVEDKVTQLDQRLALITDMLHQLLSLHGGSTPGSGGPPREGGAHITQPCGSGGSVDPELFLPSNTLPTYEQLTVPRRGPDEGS
The assay can be described thus: whole-cell patch clamp, HEK cells, current at +[…] mV. The conditions noted are these: HEK293.

For assay [5], the target named is T2, dKCNQ. The assay is described as above.

T1 sequence (O88943 whole entry): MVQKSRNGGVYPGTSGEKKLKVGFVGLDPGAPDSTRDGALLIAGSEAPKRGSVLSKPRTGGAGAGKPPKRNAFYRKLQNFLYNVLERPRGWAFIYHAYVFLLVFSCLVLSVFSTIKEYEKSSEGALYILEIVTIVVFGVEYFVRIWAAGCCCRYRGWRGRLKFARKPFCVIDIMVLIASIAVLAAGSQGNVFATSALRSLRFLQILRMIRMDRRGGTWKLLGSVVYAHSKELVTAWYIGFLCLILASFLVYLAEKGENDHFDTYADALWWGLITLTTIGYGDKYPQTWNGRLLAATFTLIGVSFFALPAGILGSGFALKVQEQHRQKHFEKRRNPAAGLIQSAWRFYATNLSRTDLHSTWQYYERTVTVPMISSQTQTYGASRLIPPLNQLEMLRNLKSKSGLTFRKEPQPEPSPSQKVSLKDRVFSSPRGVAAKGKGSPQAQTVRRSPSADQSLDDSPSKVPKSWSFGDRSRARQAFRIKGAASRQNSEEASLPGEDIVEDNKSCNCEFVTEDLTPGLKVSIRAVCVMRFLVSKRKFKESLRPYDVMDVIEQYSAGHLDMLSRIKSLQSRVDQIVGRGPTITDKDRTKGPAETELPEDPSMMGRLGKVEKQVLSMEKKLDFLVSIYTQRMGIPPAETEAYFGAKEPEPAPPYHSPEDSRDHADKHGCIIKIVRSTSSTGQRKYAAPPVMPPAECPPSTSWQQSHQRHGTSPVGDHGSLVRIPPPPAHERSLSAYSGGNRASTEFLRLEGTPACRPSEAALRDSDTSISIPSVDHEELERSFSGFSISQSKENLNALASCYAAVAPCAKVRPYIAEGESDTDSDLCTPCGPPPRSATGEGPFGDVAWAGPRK
T1 sequence (O88944 whole entry): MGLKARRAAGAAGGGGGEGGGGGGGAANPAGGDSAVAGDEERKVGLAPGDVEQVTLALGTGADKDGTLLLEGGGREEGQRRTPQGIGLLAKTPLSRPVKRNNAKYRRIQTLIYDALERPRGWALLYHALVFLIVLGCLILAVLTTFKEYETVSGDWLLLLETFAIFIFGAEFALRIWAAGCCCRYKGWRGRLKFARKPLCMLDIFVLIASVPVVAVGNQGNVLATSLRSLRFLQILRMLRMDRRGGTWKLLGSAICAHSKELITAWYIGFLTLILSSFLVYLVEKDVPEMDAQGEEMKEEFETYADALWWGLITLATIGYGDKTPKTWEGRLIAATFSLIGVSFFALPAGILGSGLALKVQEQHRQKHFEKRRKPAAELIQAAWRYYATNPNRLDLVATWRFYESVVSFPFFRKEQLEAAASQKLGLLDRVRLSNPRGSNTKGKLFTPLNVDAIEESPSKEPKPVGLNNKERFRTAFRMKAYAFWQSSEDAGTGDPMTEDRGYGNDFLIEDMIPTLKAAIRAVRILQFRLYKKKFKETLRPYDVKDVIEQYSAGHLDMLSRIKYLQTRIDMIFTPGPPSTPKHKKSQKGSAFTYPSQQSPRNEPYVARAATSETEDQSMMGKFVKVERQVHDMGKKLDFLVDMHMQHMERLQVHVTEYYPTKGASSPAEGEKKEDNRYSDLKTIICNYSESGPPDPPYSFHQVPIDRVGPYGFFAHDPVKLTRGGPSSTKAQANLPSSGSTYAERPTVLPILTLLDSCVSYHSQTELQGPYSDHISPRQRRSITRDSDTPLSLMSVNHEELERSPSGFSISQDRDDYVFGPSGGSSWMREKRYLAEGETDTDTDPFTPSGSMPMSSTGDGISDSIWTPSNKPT

As to `O=C1N(c2ccccc2)c2ccccc2C1(Cc1ccncc1)Cc1ccncc1` [linopirdine], the inhibition at 10 µM was approximately 40% in assay [1] and approximately 30% in assay [2].

Take `CCOC(=O)Nc1ccc(NCc2ccc(F)cc2)cc1N` [retigabine]: in assay [3], the “% current enhancement at 10 μM” value was ~ 35%.

With `CCS(=O)(=O)N(C)C1c2cc(C#N)ccc2OC(C)(C)C1O` (stereo not shown) [chromanol 293B], the inhibition at 10 µM in assay [4] was approximately 56%. Also, inhibition in assay [5] was half-maximal at 13 ± 3.6 µM (IC50).

As to `O=C1c2ccccc2C(Cc2ccncc2)(Cc2ccncc2)c2ccccc21` [XE991, 10,10-bis(4-Pyridinylmethyl)-9(10H)-anthracenone], the IC50 in assay [5] turned out to be 5.5 ± 1.1 µM. The same compound returned an inhibition at 10 µM in assay [1] of approximately 50%.

By inhibition is commonly meant the percentage by which the read-out fell short of the control. Low readings indicate a weak effect, high ones a strong effect. Broadly, the IC50 is the point on the concentration scale where inhibition reaches its midpoint. The low end stands for greater potency in that assay, the high end for weaker potency in that assay.
